Test results as given in patent US9566312B2, “Cyclic peptides and use as medicines” (priority 2012, dated 2017).
Read-outs that look alike come from different tables or passages of the source. Starred links: 1 amine or outer side, 2 acyl side, 3 side chain; linkers in the order of their positions; H or OH if unused. Non-standard residues stand in square brackets, D forms with d. Residues, ends and D or L forms follow the SMILES beside them. X42 = C[C@H](CCCOC(=O)N(C)C1CCN(C)CC1)[C@@H](C(=O)[*:2])N(C)[*:1]; X44 = CC(C)N1CCN(C(=O)COC[C@@H](C)[C@@H](C(=O)[*:2])N(C)[*:1])CC1; X64 = COC[C@@H]1CN(C[C@@H](C)[C@@H](C(=O)[*:2])N(C)[*:1])CCO1; X69 = C[C@H](CCCN1CCC(C(N)=O)CC1)[C@@H](C(=O)[*:2])N(C)[*:1]; X36 = C[C@H](COCCN(C)CC(F)(F)F)[C@@H](C(=O)[*:2])N(C)[*:1]; MeBmt = C/C=C/C[C@@H](C)[C@@H](O)[C@H](NC)C(=O)O; NMeVal(4-OMe,3S) = CN[C@H](C(=O)O)[C@H](C)COC; NMeL = CN[C@@H](CC(C)C)C(=O)O; NMeV = CN[C@H](C(=O)O)C(C)C; dNMeS = CN[C@H](CO)C(=O)O; dNMeA = CN[C@H](C)C(=O)O; Abu = CC[C@H](N)C(=O)O

Assays:
cyclophilin A (CypA) = cyclophilin A (CypA) (Homo sapiens (Human), UniProt P62937); experiment: Inhibitor binding to cyclophilin proteins by SPR, CypA; parameters: unit not given here; details: 1:1 binding model
cyclophilin B (CypB) = cyclophilin B (CypB) (Homo sapiens (Human), UniProt P23284); experiment: Inhibitor binding to cyclophilin proteins by SPR, CypB; parameters: unit not given here; details: 1:1 binding model
Procedure: (§1) Method 1: Measuring Inhibitor Binding to Cyclophilin Proteins
(§2) Binding of inhibitors to expressed cyclophilins was determined using surface plasmon resonance (SPR) experiments. Briefly, avi-tagged cyclophilin proteins with mono-biotinylation were immobilized onto a Biotin CAPture chip (GE Healthcare, cat. #28920234). SPR experiments were carried out on an upgraded Biacore T200 system using a running buffer containing the inhibitor, 10 mM HEPES, pH 7.4, 150 mM NaCl, 0.05% P20, and 3% DMSO. Single-cycle kinetics measurements were used to study the interactions between cyclophilin inhibitors and different cyclophlins. Accordingly, compound at various concentrations was injected to the flow cells with a contact time of 1 min each at a flow rate of 50 μL/min. The final dissociation phase lasts for 10 min following the sample injection. Data was analyzed using Biacore T200 Evaluation Software Version 1.0 and a 1:1 binding model was applied to fit the data to obtain kon, koff, and KD.

CypF = CypF (Homo sapiens (Human), UniProt P30405); experiment: Inhibitor binding to cyclophilin proteins by SPR, CypF; details: 1:1 binding model
Procedure: as §1, §2

[1] = molecular target: organic anion transporting polypeptide 1B1 (OATP1B1) (Homo sapiens (Human), UniProt Q9Y6L6); experiment: OATP assay in CHO-OATP1B1 cells;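 also: inhibition of probe substrate uptake into the cells, ten minutes exposure, accumulated substrate read by fluorescence once cells were lysed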
Procedure: In order to determine whether the compounds of the present invention interact with hepatic transporters, experiments were carried out that compared the concentration-dependent inhibition toward the organic anion transporting polypeptide 1B1 (OATP1B1) and the multidrug resistance associated protein 2 (MRP2).
The cells were cultured in DMEM/F12 +10% FBS+2 mM Ala-Gln+1% Pen-Strep for a period of two days, and the media was changed one day post-seeding. Prior to the assay, media was aspirated and were washed −3× with HBSS+10 mM HEPES and the solution was equilibrated for 15 min in HBSS+10 mM HEPES. Solutions containing the inhibitor were prepared in HBSS+10 mM HEPES (up to 1% DMSO). […] After 10 min, the substrate or substrate/inhibitor solution was aspirated and the cells were washed 3× with HBSS+10 mM HEPES. The amount of the transported probe substrate was determined by fluorescent photometry after cell lysis, and the IC50 was derived from the concentration-response curve.

[2] = tested on: genotype 1b subgenomic HCV replicon in Huh7.5 cells; type: cell-based, hepatitis C virus; details: read-out: RPLN-1b IC50
Procedure: Method 2: Measuring Inhibitory Effects in a HCV Replicon System
Susceptibility to compounds was analyzed in Huh7.5 cells containing genotype 1a or 1b subgenomic HCV replicons co-expressing a luciferase reporter gene. The original replicons, pFK389lucubineo_3_3′_ET and pH/SG-Neo(L+I), were licensed from ReBlicon GmbH (Germany) and Apath LLC (Saint Louis, Mo.), respectively. The firefly reporter gen was replaced by renilla luciferase reporter gene using standard molecular biology techniques as follows.
Generation of genotype 1b subgenomic replicon: The renilla […]-neomycin phosphotransferase cassette was amplified from pF9 cytomegalovirus (CMV) hRluc-Neo Flexi(R) (Promega) by PCR using Accuprime super mix II (Invitrogen) and a primer set of Ascl hRlucNeo Fwd and NotI hRluc Rev. These two primers have the following sequences and introduce restriction sites for subsequent cloning: Ascl hRlucNeo Fwd, 5 […] 3(Ascl site underlined) (SEQ. ID No. 1), and NotI hRluc Rev, 5[…] 3(NotI site underlined) (SEQ ID No. 2). The amplification product was subcloned into pCR2.1-TOPO (Invitrogen). The resulting plasmid was digested with Ascl and NotI, and the excised fragment (hRluc-Neo) was ligated with the Roche Quick Ligation Kit (Roche) into pFK1389lucubineo_3_3′_ET digested with the same enzymes.
The assay medium for both, luciferase reporter HCV replicon and cytotoxicity assays contains phenol red-free DMEM and lacks G418. […] Luciferase activity of compound treated cells is measured relative to DMSO treated cells after 72 h incubation using Renilla-Glo™ Luciferase Assay (Promega). Cytotoxicity (CC50) is analyzed using Cell Titer-Glo™ (Promega).

[3] = tested on: peripheral blood mononuclear cells (PBMC); experiment: Anti-proliferative or immunosuppressive activity, BrdU incorporation in PHA-stimulated PBMC; type: cell-based; details: PHA 3 μg/ml, 60 hour compound treatment; read-out: EMV PBMC IC50
Procedure: Method 3: Measuring Anti-Proliferative or Immunosuppressive Activity
The potential anti-proliferative activity of compounds on T-cells was analyzed based on the amount of bromodesoxy uridine (BrdU) incorporated into DNA of fresh peripheral blood mononuclear cells (PBMC) using the BrdU ELISA kit (Roche). The assay is performed in 96-well plate format with 30,000 PBMCs seeded per well in X-VIVO 15 medium (Lonza). T-cell proliferation was stimulated by addition of 3 μg/ml phytohemagglutinin (PHA) in PBMCs obtained from two donors.

[4] = genotype 1b replicon, 72 h incubation

Chain of cyclophilin A (CypA) (P62937 whole entry): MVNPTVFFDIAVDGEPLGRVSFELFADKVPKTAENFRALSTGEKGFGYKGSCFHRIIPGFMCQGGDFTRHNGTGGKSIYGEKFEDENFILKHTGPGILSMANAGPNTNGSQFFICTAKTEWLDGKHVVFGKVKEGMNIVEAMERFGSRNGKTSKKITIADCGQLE
Chain of organic anion transporting polypeptide 1B1 (OATP1B1) (Q9Y6L6 whole entry): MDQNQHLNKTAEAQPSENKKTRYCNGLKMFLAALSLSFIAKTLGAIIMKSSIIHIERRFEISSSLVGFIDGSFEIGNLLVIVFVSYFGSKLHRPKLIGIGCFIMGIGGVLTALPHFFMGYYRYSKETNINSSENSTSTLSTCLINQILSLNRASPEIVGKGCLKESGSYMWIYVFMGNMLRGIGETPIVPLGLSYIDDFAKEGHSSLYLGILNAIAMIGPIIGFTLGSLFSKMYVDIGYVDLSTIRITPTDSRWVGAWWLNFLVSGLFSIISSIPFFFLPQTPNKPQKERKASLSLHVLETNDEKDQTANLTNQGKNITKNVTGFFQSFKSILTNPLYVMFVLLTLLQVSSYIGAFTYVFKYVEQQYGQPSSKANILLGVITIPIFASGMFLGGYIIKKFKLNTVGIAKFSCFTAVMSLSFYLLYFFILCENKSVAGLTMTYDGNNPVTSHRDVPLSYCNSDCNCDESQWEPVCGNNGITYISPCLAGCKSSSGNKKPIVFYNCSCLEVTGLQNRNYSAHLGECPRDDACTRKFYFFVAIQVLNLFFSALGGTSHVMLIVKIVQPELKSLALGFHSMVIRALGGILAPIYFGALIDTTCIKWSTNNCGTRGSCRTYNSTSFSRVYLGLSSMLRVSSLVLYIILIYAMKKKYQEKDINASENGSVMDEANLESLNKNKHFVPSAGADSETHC
Chain of CypF (P30405 30-207): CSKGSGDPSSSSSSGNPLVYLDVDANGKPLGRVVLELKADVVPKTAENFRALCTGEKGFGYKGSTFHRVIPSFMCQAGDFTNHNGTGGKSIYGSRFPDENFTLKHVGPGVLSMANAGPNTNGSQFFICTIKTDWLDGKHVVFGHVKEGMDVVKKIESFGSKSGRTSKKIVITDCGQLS
Chain of cyclophilin B (CypB) (P23284 34-216): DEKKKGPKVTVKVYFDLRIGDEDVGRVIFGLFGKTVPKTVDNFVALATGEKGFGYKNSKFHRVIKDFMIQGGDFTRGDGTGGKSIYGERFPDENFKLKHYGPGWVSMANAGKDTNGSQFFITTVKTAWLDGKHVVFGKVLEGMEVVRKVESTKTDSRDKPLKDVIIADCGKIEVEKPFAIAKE

SMILES | CypA Kd (cyclophilin A (CypA)) | CypB Kd (cyclophilin B (CypB)) | CypF Kd (CypF) | IC50 [1] | IC50 [2, 4] | IC50 [3] | IC50 [2]
C/C=C/C[C@@H](C)[C@@H](O)[C@H]1C(=O)N[C@@H](CC)C(=O)N(C)[C@H](C)C(=O)N(C)[C@@H]([C@H](C)COCC(=O)N2CCN(C(C)C)CC2)C(=O)N[C@@H](C(C)C)C(=O)N(C)[C@@H](CC(C)C)C(=O)N[C@@H](C)C(=O)N[C@H](C)C(=O)N(C)[C@@H](CC(C)C)C(=O)N(C)[C@@H](CC(C)C)C(=O)N(C)[C@@H](C(C)C)C(=O)N1C [Compound 2.6.4, 3-[D-Ala]-4-[(2S,3S)-4-(2-(4-isopropylpiperazin-1-yl)-2-oxoethoxy)-3-methyl-2-(methylamino)butanoyl]-cyclosporin] (cyclo(A[dA][NMeL][NMeL][NMeV][MeBmt][Abu][dNMeA][X44]V[NMeL])) | 1.4 | 1.1 | 0.6 nM | 8000 nM | – | – | –
C/C=C/C[C@@H](C)[C@@H](O)[C@H]1C(=O)N[C@@H](CC)C(=O)N(C)[C@H](C)C(=O)N(C)[C@@H]([C@H](C)COCCN(C)CC(F)(F)F)C(=O)N[C@@H](C(C)C)C(=O)N(C)[C@@H](CC(C)C)C(=O)N[C@@H](C)C(=O)N[C@H](C)C(=O)N(C)[C@@H](CC(C)C)C(=O)N(C)[C@@H](CC(C)C)C(=O)N(C)[C@@H](C(C)C)C(=O)N1C [Compound 2.8.3, 3-[D-Ala]-4-[(2S,3S)-3-methyl-4-(2-(methyl(2,2,2-trifluoroethyl)amino)ethoxy)-2-(methylamino)butanoyl]-cyclosporin] (cyclo(A[dA][NMeL][NMeL][NMeV][MeBmt][Abu][dNMeA][X36]V[NMeL])) | 4.4 | 3.3 | 4.1 nM | 1900 nM | – | – | –
C/C=C/C[C@@H](C)[C@@H](O)[C@H]1C(=O)N[C@@H](CC)C(=O)N(C)[C@H](C)C(=O)N(C)[C@@H]([C@H](C)CCCN2CCC(C(N)=O)CC2)C(=O)N[C@@H](C(C)C)C(=O)N(C)[C@@H](CC(C)C)C(=O)N[C@@H](C)C(=O)N[C@H](C)C(=O)N(C)[C@@H](CC(C)C)C(=O)N(C)[C@@H](CC(C)C)C(=O)N(C)[C@@H](C(C)C)C(=O)N1C [Compound 2.19.2, 3-[D-Ala]-4-[(2S,3R)-6-(4-carbamoylpiperidin-1-yl)-3-methyl-2-(methylamino)hexanoyl]-cyclosporin] (cyclo(A[dA][NMeL][NMeL][NMeV][MeBmt][Abu][dNMeA][X69]V[NMeL])) | 0.9 | 0.6 | 0.5 nM | – | 2700 nM | 32300 nM | –
C/C=C/C[C@@H](C)[C@@H](O)[C@H]1C(=O)N[C@@H](CC)C(=O)N(C)[C@H](C)C(=O)N(C)[C@@H]([C@H](C)COCCN2CCN3C(=O)OC[C@@H]3C2)C(=O)N[C@@H](C(C)C)C(=O)N(C)[C@@H](CC(C)C)C(=O)N[C@@H](C)C(=O)N[C@H](C)C(=O)N(C)[C@@H](CC(C)C)C(=O)N(C)[C@@H](CC(C)C)C(=O)N(C)[C@@H](C(C)C)C(=O)N1C [Compound 2.8.11, 3-[D-Ala]-4-[(2S,3S)-3-methyl-2-(methylamino)-4-(2-((S)-3-oxotetrahydro-1H-oxazolo[3,4-a]pyrazin-7(3H)-yl)ethoxy)butanoyl]-cyclosporin] | 1.3 | 0.6 | 0.5 nM | – | 58 nM | 12400 nM | –
C/C=C/C[C@@H](C)[C@@H](O)[C@H]1C(=O)N[C@@H](CC)C(=O)N(C)[C@H](C)C(=O)N(C)[C@@H]([C@H](C)CCCOC(=O)N(C)C2CCN(C)CC2)C(=O)N[C@@H](C(C)C)C(=O)N(C)[C@@H](CC(C)C)C(=O)N[C@@H](C)C(=O)N[C@H](C)C(=O)N(C)[C@@H](CC(C)C)C(=O)N(C)[C@@H](CC(C)C)C(=O)N(C)[C@@H](C(C)C)C(=O)N1C [Compound 2.19.9, 3-[D-Ala]-4-[(2S,3R)-3-methyl-6-((methyl(1-methylpiperidin-4-yl)carbamoyl)oxy)-2-(methylamino)hexanoyl]-cyclosporin] (cyclo(A[dA][NMeL][NMeL][NMeV][MeBmt][Abu][dNMeA][X42]V[NMeL])) | 0.8 | 0.4 | 0.4 nM | 3700 nM | – | – | –
C/C=C/C[C@@H](C)[C@@H](O)[C@H]1C(=O)N[C@@H](CC)C(=O)N(C)[C@H](C)C(=O)N(C)[C@@H]([C@H](C)COCCN2CC(OC)C2)C(=O)N[C@@H](C(C)C)C(=O)N(C)[C@@H](CC(C)C)C(=O)N[C@@H](C)C(=O)N[C@H](C)C(=O)N(C)[C@@H](CC(C)C)C(=O)N(C)[C@@H](CC(C)C)C(=O)N(C)[C@@H](C(C)C)C(=O)N1C [Compound 2.8.9, 3-[D-Ala]-4-[(2S,3S)-4-(2-(3-methoxyazetidin-1-yl)ethoxy)-3-methyl-2-(methylamino)butanoyl]-cyclosporin] | 0.6 | 0.4 | 0.3 nM | – | 240 nM | 9100 nM | –
C/C=C/C[C@@H](C)[C@@H](O)[C@H]1C(=O)N[C@@H](CC)C(=O)N(C)[C@H](CCCNC)C(=O)N(C)[C@@H]([C@H](C)COC)C(=O)N[C@@H](C(C)C)C(=O)N(C)[C@@H](CC(C)C)C(=O)N[C@@H](C)C(=O)N[C@H](C)C(=O)N(C)[C@@H](CC(C)C)C(=O)N(C)[C@@H](CC(C)C)C(=O)N(C)[C@@H](C(C)C)C(=O)N1C (stereo in doubt) [Compound 3.2.1, 3-[(R)-2,5-bis(methylamino)pentanoyl]-4-[(2S,3S)-4-methoxy-3-methyl-2-(methylamino)butanoyl]-cyclosporin] | 6.3 | 3.0 | 3.4 nM | – | 4800 nM | 34900 nM | –
C/C=C/C[C@@H](C)[C@@H](O)[C@H]1C(=O)N[C@@H](CC)C(=O)N(C)[C@H](C)C(=O)N(C)[C@@H]([C@H](C)CN2CCO[C@H](COC)C2)C(=O)N[C@@H](C(C)C)C(=O)N(C)[C@@H](CC(C)C)C(=O)N[C@@H](C)C(=O)N[C@H](C)C(=O)N(C)[C@@H](CC(C)C)C(=O)N(C)[C@@H](CC(C)C)C(=O)N(C)[C@@H](C(C)C)C(=O)N1C [Compound 2.5.34, 3-[D-Ala]-4-[(2S,3R)-4-((S)-2-(methoxymethyl)morpholino)-3-methyl-2-(methylamino)butanoyl]-cyclosporin] (cyclo(A[dA][NMeL][NMeL][NMeV][MeBmt][Abu][dNMeA][X64]V[NMeL])) | 1.3 | 0.6 | 0.6 nM | – | 27 nM | 19000 nM | –
C/C=C/C[C@@H](C)[C@@H](O)[C@H]1C(=O)N[C@@H](CC)C(=O)N(C)[C@H](CO)C(=O)N(C)[C@@H]([C@H](C)COC)C(=O)N[C@@H](C(C)C)C(=O)N(C)[C@@H](CC(C)C)C(=O)N[C@@H](C)C(=O)N[C@H](C)C(=O)N(C)[C@@H](CC(C)C)C(=O)N(C)[C@@H](CC(C)C)C(=O)N(C)[C@@H](C(C)C)C(=O)N1C [Compound 3.2.3, 3-[D-ser]-4-[(2S,3S)-4-methoxy-3-methyl-2-(methylamino)butanoyl]-cyclosporin] (cyclo(A[dA][NMeL][NMeL][NMeV][MeBmt][Abu][dNMeS][NMeVal(4-OMe,3S)]V[NMeL])) | 15 | 7 | 7 nM | – | – | 8900 nM | 330 nM
